Results taken from patent US20050228180A1, “Alpha, omega-dicarboximide derivatives as useful uro-selective a1a adrenoceptor blockers” (priority 2002, published 2005).
Where a name gives a salt, the structure may show the parent alone.

Tests used:
α1D adrenoceptor (aorta) = molecular target: T1, α1D adrenoceptor (aorta) (Rattus norvegicus, UniProt P23944); assay: In vitro functional assay, isolated aorta, norepinephrine contraction; type: cell-based; details: read-out: α Adrenoceptor Subtype (pKB) α1D (converted)
T1 construct: Isolated tissues were mounted in organ bath containing Krebs Henseleit buffer; from tissue; host or cells: isolated rat aorta
T1 sequence (P23944 1-561): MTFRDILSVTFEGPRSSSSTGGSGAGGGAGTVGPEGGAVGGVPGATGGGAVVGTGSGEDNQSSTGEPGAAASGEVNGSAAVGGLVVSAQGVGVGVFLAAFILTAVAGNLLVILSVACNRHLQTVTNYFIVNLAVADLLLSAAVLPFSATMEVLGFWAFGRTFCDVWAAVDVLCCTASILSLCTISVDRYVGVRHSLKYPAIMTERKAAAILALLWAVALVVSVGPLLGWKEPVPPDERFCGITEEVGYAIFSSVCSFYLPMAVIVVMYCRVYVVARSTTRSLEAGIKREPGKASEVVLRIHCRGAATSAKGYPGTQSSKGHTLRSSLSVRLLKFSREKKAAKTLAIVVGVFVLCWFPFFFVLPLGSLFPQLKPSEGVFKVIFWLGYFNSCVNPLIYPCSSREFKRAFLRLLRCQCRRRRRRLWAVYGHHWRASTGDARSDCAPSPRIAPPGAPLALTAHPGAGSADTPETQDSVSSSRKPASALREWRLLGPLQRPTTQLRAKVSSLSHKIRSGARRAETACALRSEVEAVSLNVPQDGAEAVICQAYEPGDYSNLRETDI
In short: (§1)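 Rat aorta, spleen and prostate strips from urethane-anaesthetised male Wistar rats in Krebs-Henseleit at 37 °C (95% O2/5% CO2), 2 g or 1 g resting tension, 2 h equilibration. Norepinephrine (aorta) or phenylephrine (spleen, prostate) contraction curves run without and with compound at […]; antagonist affinity given as pKB.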

[1] = molecular target: T2, α1A adrenoceptor (prostate) (Rattus norvegicus, UniProt P43140); assay: In vitro functional assay, isolated prostate, phenylepinephrine contraction; type: cell-based
T2 construct: from tissue; host or cells: isolated prostate tissue
T2 sequence (P43140 1-466): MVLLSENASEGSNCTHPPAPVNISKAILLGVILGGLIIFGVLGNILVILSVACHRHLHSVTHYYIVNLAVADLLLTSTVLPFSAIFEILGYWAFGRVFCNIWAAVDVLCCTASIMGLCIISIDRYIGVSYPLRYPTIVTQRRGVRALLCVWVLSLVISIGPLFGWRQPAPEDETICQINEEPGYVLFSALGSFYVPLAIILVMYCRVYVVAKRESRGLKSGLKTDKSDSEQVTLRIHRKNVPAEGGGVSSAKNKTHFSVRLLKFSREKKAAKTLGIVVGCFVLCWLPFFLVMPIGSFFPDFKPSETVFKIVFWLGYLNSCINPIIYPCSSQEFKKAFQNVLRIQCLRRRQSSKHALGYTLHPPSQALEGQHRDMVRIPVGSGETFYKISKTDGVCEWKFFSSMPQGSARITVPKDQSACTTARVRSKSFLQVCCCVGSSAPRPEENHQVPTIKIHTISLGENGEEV
In short: as §1

α1B adrenoceptor = molecular target: T3, α1B adrenoceptor (Rattus norvegicus, UniProt P15823); assay: Radioligand binding, [3H] prazosin displacement, rat liver membranes; details: read-out: Affinity (Ki) α1B (Rat Liver)
T3 construct: from tissue; host or cells: rat liver membranes
T3 sequence (P15823 1-515): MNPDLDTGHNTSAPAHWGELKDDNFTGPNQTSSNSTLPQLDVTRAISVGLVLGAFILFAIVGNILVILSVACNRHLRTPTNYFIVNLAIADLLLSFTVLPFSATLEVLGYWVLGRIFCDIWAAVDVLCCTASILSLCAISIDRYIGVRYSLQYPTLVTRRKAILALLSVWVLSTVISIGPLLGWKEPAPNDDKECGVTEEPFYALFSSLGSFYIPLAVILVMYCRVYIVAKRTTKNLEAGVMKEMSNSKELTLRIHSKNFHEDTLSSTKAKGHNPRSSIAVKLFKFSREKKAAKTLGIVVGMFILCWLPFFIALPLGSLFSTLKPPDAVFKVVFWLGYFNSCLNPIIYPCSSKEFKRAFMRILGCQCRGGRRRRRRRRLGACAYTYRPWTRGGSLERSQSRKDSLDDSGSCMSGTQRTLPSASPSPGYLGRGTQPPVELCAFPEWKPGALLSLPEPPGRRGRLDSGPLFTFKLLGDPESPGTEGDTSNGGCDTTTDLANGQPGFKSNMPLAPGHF
In short: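 Rat membranes (submaxillary for α1A, liver for α1B; 150-250 μg protein) incubated with [3H]prazosin and compound in Tris 50 mM/EDTA 5 mM pH 7.4, 1 h at 24-25° C. Nonspecific binding with 300 nM prazosin; filtration, counting; Ki via Cheng–Prusoff.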

Which Kb (α1D adrenoceptor (aorta)) does the source give for `CC(C)Oc1ccccc1N1CCN(CCCN2C(=O)C3CC(O)C(O)CC3C2=O)CC1` (centres unmarked) [Compound No. 23, 2-[3-{4-(2-Isopropoxyphenyl)piperazin-1-yl}propyl]-5,6-dihydroxy-3a,4,5,6,7,7a, hexahydro-1H-isoindole-1,3(2H)-dione-hydrochloride] here?
The Kb was 8.32 nM.

What about the “Selectivity α1B/α1A” value ([1]; functional, from pKB) of the same molecule?
Its value is 5.

What about the “Selectivity α1D/α1A” value ([1]; functional, from pKB) of the same molecule?
The value was 5.6.

What about the Kb ([1]; rat prostate, phenylepinephrine, read-out: α Adrenoceptor Subtype (pKB) α1A (converted)) of the same molecule?
Its Kb is 1.48 nM.

And the Ki (α1B adrenoceptor)?
The Ki was 127 nM.
